Assay results from patent US9963448B2, “Bicyclic inhibitors of PAD4” (Padlock Therapeutics, Inc., priority 2015, dated 2018).
Structures can show the parent of a compound that is named as a salt. Where two headings read alike, the source gives them in different places.

Assays:
hPAD4 = hPAD4 (Homo sapiens, UniProt Q9UM07); experiment: hPAD4 RFMS (RapidFire mass spectrometry) PAD4 inhibition assay; assay type: biochemical; settings: hPAD4 enzyme, RFMS readout;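 as to hPAD4 RFMS pIC50: grade E means pIC50 at most 4 and F means pIC50 4.0 to 5.0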
Sequence of hPAD4 (Q9UM07 whole entry): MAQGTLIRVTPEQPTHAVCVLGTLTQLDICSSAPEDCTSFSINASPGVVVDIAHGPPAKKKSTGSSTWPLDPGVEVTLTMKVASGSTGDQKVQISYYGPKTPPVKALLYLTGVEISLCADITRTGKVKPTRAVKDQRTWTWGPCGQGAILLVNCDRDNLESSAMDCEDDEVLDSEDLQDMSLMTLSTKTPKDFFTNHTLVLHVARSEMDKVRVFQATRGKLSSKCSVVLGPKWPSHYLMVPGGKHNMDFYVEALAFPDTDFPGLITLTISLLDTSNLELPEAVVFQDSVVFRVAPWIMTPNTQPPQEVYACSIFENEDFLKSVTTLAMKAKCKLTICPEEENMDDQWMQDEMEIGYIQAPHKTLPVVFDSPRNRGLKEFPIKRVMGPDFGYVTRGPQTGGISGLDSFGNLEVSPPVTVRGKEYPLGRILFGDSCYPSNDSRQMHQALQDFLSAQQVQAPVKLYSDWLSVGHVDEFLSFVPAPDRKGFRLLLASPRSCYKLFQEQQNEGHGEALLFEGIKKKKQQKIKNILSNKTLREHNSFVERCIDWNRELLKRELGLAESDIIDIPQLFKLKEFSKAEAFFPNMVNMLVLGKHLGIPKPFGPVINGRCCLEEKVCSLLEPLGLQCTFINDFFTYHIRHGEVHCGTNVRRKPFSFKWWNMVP
Protocol: (§1) Compounds of the present invention were assayed as inhibitors of PAD4 using the assay protocol described below.
(§2) Compound stock solutions were stored at RT. […] Final assay conditions were as follows:
(§3) Total incubation time: 65 mins at 37° C.
(§4) Stop solution: 40 μl 5% TCA in ACN
(§5) The compound numbers correspond to the compound numbers in Table 1. […] The term pIC50=−log(IC50). […] “NA” stands for “not assayed.”

mPAD4 = mPAD4 (Mus musculus, UniProt Q9Z183); experiment: mPAD4 RFMS PAD4 inhibition assay; assay type: biochemical; settings: mPAD4, RFMS readout;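 as to mPAD4 RFMS pIC50: grade E means pIC50 at most 4 and F means pIC50 4.0 to 5.0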
Sequence of mPAD4 (Q9Z183 whole entry): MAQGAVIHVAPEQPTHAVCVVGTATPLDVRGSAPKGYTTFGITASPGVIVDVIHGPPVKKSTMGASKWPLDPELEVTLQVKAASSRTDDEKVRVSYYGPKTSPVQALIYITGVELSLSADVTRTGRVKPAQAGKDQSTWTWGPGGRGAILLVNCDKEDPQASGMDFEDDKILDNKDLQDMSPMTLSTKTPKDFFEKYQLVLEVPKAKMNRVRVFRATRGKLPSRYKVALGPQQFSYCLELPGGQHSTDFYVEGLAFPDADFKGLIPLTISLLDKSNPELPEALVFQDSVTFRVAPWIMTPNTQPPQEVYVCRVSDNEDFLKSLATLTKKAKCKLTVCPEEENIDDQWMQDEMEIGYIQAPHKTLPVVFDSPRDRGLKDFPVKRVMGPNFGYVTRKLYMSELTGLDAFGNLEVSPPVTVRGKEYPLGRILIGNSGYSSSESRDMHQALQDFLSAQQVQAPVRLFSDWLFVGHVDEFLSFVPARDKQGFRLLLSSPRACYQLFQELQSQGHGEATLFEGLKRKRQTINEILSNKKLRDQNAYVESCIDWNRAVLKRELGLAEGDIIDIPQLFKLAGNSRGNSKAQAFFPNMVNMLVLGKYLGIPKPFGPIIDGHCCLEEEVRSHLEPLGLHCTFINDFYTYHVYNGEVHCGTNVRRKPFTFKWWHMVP
Protocol: as §1, §2, §3, §4, §5

[1] = pIC50=−log(IC50), read-out: hPAD4 RFMS pIC50 (converted)
[2] = pIC50=−log(IC50), read-out: mPAD4 RFMS pIC50 (converted)

SMILES | IC50 (hPAD4; [1]) | IC50 (hPAD4; read-out: hPAD4 RFMS IC50) | IC50 (mPAD4; [2]) | IC50 (mPAD4; read-out: mPAD4 RFMS IC50)
COc1ccc2cc(-c3nc4cc(C(=O)N5CCC[C@@H](N)C5)cc(OC)c4n3C)n(CC3CC3)c2n1 [Compound I-33, (3R)-1-{2-[1-(cyclopropylmethyl)-6-methoxy-1H-pyrrolo[2,3-b]pyridin-2-yl]-7-methoxy-1-methyl-1H-1,3-benzodiazole-5-carbonyl}piperidin-3-amine] | < 1 µM | < 1 µM | < 1 µM | < 1 µM
COc1cc(C(=O)N2C[C@@H](N)C[C@H](F)C2)cc2nc(-c3cc4cccnc4n3CC3CC3)n(C)c12 [Compound I-34] | < 1 µM | < 1 µM | < 1 µM | < 1 µM
COc1cc(C(=O)N2C[C@H](N)C[C@@H](F)C2)cc2nc(-c3cc4cccnc4n3CC3CC3)n(C)c12 [Compound I-35] | < 1 µM | < 1 µM | < 1 µM | < 1 µM
COc1cc(C(=O)N2C[C@@H](N)CC[C@H]2C)cc2nc(-c3cc4cccnc4n3CC3CC3)n(C)c12 [Compound I-36] | < 1 µM | < 1 µM | < 1 µM | < 1 µM
Cn1c(-c2cc3cccnc3n2CC2CC2)nc2cc(C(=O)N3CCCC4NCCC43)ccc21 (centres unmarked) [Compound I-52] | 10 to 100 µM | > 10 µM | 10 to 100 µM | > 10 µM
Cn1c(-c2cc3cccnc3n2CC2CC2)nc2cc(C(=O)N3CC[C@H](F)[C@@H](N)C3)ccc21 [Compound I-54] | 1 to 10 µM | 5 to 10 µM | 10 to 100 µM | > 10 µM
Cn1c(-c2cc3cccnc3n2CC2CC2)nc2cc(C(=O)N3CC[C@@H](F)[C@H](N)C3)ccc21 [Compound I-55] | 10 to 100 µM | > 10 µM | 10 to 100 µM | > 10 µM
COc1cc(C(=O)N2CCC(F)C(N)C2)cc2nc(-c3cc4cccnc4n3CC3CC3)n(C)c12 (centres unmarked) [Compound I-56] | 1 to 10 µM | 1 to 5 µM | 1 to 10 µM | 1 to 5 µM
Cn1c(-c2cc3cccnc3n2CC2CC2)nc2cc(C(=O)N3CCC[C@@H](N)C3)cc(OCC(F)(F)F)c21 [Compound I-59] | 1 to 10 µM | 1 to 5 µM | < 1 µM | < 1 µM
Cn1c(-c2cc3cccnc3n2CC2CC2)nc2cc(C(=O)N3C[C@@H](N)C[C@H](F)C3)ccc21 [Compound I-66] | 1 to 10 µM | < 1 µM | 1 to 10 µM | 1 to 5 µM
COc1cc2c(cc1C(=O)N1CCC[C@@H](N)C1)nc(-c1cc3cccnc3n1CC1CC1)n2C [Compound I-68, (3R)-1-{2-[1-(cyclopropylmethyl)-1H-pyrrolo[2,3-b]pyridin-2-yl]-6-methoxy-1-methyl-1H-1,3-benzodiazole-5-carbonyl}piperidin-3-amine hydrochloride] | 1 to 10 µM | 5 to 10 µM | 10 to 100 µM | > 10 µM
CC(=O)Nc1ccnc2c1cc(-c1nc3cc(C(=O)N4CCC[C@@H](N)C4)ccc3n1C)n2CC1CC1 [Compound I-69, N-(2-{5-[(3R)-3-Aminopiperidine-1-carbonyl]-1-methyl-1H-1,3-benzodiazol-2-yl}-1-(cyclopropylmethyl)-1H-pyrrolo[2,3-b]pyridin-4-yl)acetamide] | 1 to 10 µM | < 1 µM | 10 to 100 µM | > 10 µM
COc1ccc2cc(-c3nc4cc(C(=O)N5CCC[C@@H](N)C5)ccc4n3C)n(CC3CC3)c2n1 [Compound I-70, (3R)-1-{2-[1-(Cyclopropylmethyl)-6-methoxy-1H-pyrrolo[2,3-b]pyridin-2-yl]-1-methyl-1H-1,3-benzodiazole-5-carbonyl}piperidin-3-amine] | < 1 µM | < 1 µM | < 1 µM | < 1 µM
CCn1c(-c2cc3cccnc3n2CC2CC2)nc2cc(C(=O)N3C[C@@H](N)C[C@H](F)C3)cc(OC)c21 [Compound I-71] | 1 to 10 µM | 1 to 5 µM | < 1 µM | < 1 µM
Cn1c(-c2cc3cccnc3n2CC2CC2)nc2cc(C(=O)N3C[C@@H](N)C[C@H](F)C3)cc(OCC(F)F)c21 [Compound I-72] | 1 to 10 µM | 1 to 5 µM | < 1 µM | < 1 µM
Cn1c(-c2cc3cccnc3n2CC2CC2)nc2cc(C(=O)N3C[C@@H](N)C[C@H](F)C3)cc(OC(F)F)c21 [Compound I-73] | 1 to 10 µM | 1 to 5 µM | < 1 µM | < 1 µM
COc1cc(C(=O)N2C[C@@H]3[C@@H](N)[C@@H]3C2)cc2nc(-c3cc4cccnc4n3CC3CC3)n(C)c12 [Compound I-76] | 10 to 100 µM | > 10 µM | 10 to 100 µM | > 10 µM
COc1cc(C(=O)N2CC3CCC2C3N)cc2nc(-c3cc4cccnc4n3CC3CC3)n(C)c12 (centres unmarked) [Compound I-81] | < 1 µM | < 1 µM | < 1 µM | < 1 µM
COc1cc(C(=O)N2CC(O)(C3(N)CCCC3)C2)cc2nc(-c3cc4cccnc4n3CC3CC3)n(C)c12 [Compound I-84] | 10 to 100 µM | > 10 µM | 10 to 100 µM | > 10 µM
COc1cc(C(=O)N2CC3(CCC3N)C2)cc2nc(-c3cc4cccnc4n3CC3CC3)n(C)c12 (centres unmarked) [Compound I-85] | 10 to 100 µM | > 10 µM | 10 to 100 µM | > 10 µM
COc1cc(C(=O)N2C[C@H](N)CC[C@@H]2C)cc2nc(-c3cc4cccnc4n3CC3CC3)n(C)c12 [Compound I-87] | < 1 µM | < 1 µM | < 1 µM | < 1 µM
COc1cc(C(=O)N2C[C@H](N)CC[C@H]2C)cc2nc(-c3cc4cccnc4n3CC3CC3)n(C)c12 [Compound I-88] | 10 to 100 µM | > 10 µM | 1 to 10 µM | 5 to 10 µM
COc1cc(C(=O)N2C[C@@H](N)CC[C@@H]2C)cc2nc(-c3cc4cccnc4n3CC3CC3)n(C)c12 [Compound I-89] | 10 to 100 µM | > 10 µM | 10 to 100 µM | > 10 µM
COc1cc(C(=O)N2CC[C@H](F)[C@H](N)C2)cc2nc(-c3cc4cccnc4n3CC3CC3)n(C)c12 [Compound I-90] | 1 to 10 µM | 1 to 5 µM | 1 to 10 µM | 1 to 5 µM
COc1cc(C(=O)N2CC[C@@H](F)[C@@H](N)C2)cc2nc(-c3cc4cccnc4n3CC3CC3)n(C)c12 [Compound I-91] | < 1 µM | < 1 µM | < 1 µM | < 1 µM
CCn1c(-c2cc3ccc(OC)nc3n2CC2CC2)nc2cc(C(=O)N3C[C@@H](N)C[C@H](F)C3)cc(OC)c21 [Compound I-92] | 1 to 10 µM | 1 to 5 µM | < 1 µM | < 1 µM
COc1cc(C(=O)N2C[C@@H](N)C[C@H](F)C2)cc2nc(-c3cc4cccnc4n3CC3(C)CC3)n(C)c12 [Compound I-93, (3S,5S)-5-Fluoro-1-(7-methoxy-1-methyl-2-{1-[(1-methylcyclopropyl)methyl]-1H-pyrrolo[2,3-b]pyridin-2-yl}-1H-1,3-benzodiazole-5-carbonyl)piperidin-3-amine] | 1 to 10 µM | 1 to 5 µM | 1 to 10 µM | 1 to 5 µM
COc1ccc2cc(-c3nc4cc(C(=O)N5CCC[C@@H](N)C5)cc(OC)c4n3CC(F)F)n(CC3CC3)c2n1 [Compound I-94, (3R)-1-{2-[1-(cyclopropylmethyl)-6-methoxy-1H-pyrrolo[2,3-b]pyridin-2-yl]-1-(2,2-difluoroethyl)-7-methoxy-1H-1,3-benzodiazole-5-carbonyl}piperidin-3-amine] | < 1 µM | < 1 µM | < 1 µM | < 1 µM
COc1cc(C(=O)N2CC3(CCOC[C@@H]3N)C2)cc2nc(-c3cc4cccnc4n3CC3CC3)n(C)c12 [Compound I-95] | 10 to 100 µM | > 10 µM | 10 to 100 µM | > 10 µM
